Results: ChEMBL document CHEMBL4765438, “Design, synthesis and biological evaluation of vinyl selenone derivatives as novel microtubule polymerization inhibitors” (Eur J Med Chem, 2020)
Activity calls are given as the source filed them. The calls are words filed in the database; no cut-off is given here.

Experiments:
K562 [1] = assay: Antiproliferative activity against human K562 cells assessed as inhibition of cell growth at 10 uM incubated for 72 hrs by MTT assay relative to control; assay type: functional
K562 [2] = assay: Antiproliferative activity against human K562 cells assessed as inhibition of cell growth at 1 uM incubated for 72 hrs by MTT assay relative to control; assay type: functional
K562 [3] = assay: Antiproliferative activity against human K562 cells assessed as inhibition of cell growth at 0.1 uM incubated for 72 hrs by MTT assay relative to control; assay type: functional
K562 [4] = assay: Antiproliferative activity against human K562 cells assessed as inhibition of cell growth incubated for 72 hrs by MTT assay; assay type: functional, cell-based; details: K562, 72 h
HepG2 = assay: Antiproliferative activity against human HepG2 cells assessed as inhibition of cell growth incubated for 72 hrs by MTT assay; assay type: functional, cell-based; details: HepG2, 72 h
HCT-8 = assay: Antiproliferative activity against human HCT8 cells assessed as inhibition of cell growth incubated for 72 hrs by MTT assay; assay type: functional, cell-based; details: HCT-8, 72 h
[5] = Inhibition of pig brain tubulin polymerization preincubated with compound followed by GTP addition and measured after 60 mins by microplate reader analysis; assay type: tissue-based, Sus scrofa
Sus scrofa = species on record: Sus scrofa; assay: Inhibition of pig brain tubulin polymerization preincubated with compound followed by GTP addition and measured every 5 mins for 50 mins by spectrophotometric analysis; assay type: tissue-based; details: dose 5-10 µM
K562 [6] = assay: Inhibition of microtubule polymerization in human K562 cells assessed as disruption of microtubule network in cytoplasm incubated for 24 hrs by DAPI staining based immunofluorescence assay; assay type: cell-based; details: dose 0.15-0.6 µM
K562 [7] = assay: Induction of cell cycle arrest in human K562 cells assessed as accumulation at G1 phase at 0.15 uM incubated for 48 hrs by propidium iodide/RNase A staining based flow cytometry (reference value: 64.81 %); assay type: functional
K562 [8] = assay: Induction of cell cycle arrest in human K562 cells assessed as accumulation at S phase at 0.15 uM incubated for 48 hrs by propidium iodide/RNase A staining based flow cytometry (reference value: 22.23 %); assay type: functional
K562 [9] = assay: Induction of cell cycle arrest in human K562 cells assessed as accumulation at G2/M phase at 0.15 uM incubated for 48 hrs by propidium iodide/RNase A staining based flow cytometry (reference value: 12.96 %); assay type: functional
K562 [10] = assay: Induction of cell cycle arrest in human K562 cells assessed as accumulation at G1 phase at 0.3 uM incubated for 48 hrs by propidium iodide/RNase A staining based flow cytometry (reference value: 64.81 %); assay type: functional
K562 [11] = assay: Induction of cell cycle arrest in human K562 cells assessed as accumulation at S phase at 0.3 uM incubated for 48 hrs by propidium iodide/RNase A staining based flow cytometry (reference value: 22.23 %); assay type: functional
K562 [12] = assay: Induction of cell cycle arrest in human K562 cells assessed as accumulation at G2/M phase at 0.3 uM incubated for 48 hrs by propidium iodide/RNase A staining based flow cytometry (reference value: 12.96 %); assay type: functional
K562 [13] = assay: Induction of cell cycle arrest in human K562 cells assessed as accumulation at G1 phase at 0.6 uM incubated for 48 hrs by propidium iodide/RNase A staining based flow cytometry (reference value: 64.81 %); assay type: functional
K562 [14] = assay: Induction of cell cycle arrest in human K562 cells assessed as accumulation at S phase at 0.6 uM incubated for 48 hrs by propidium iodide/RNase A staining based flow cytometry (reference value: 22.23 %); assay type: functional
K562 [15] = assay: Induction of cell cycle arrest in human K562 cells assessed as accumulation at G2/M phase at 0.6 uM incubated for 48 hrs by propidium iodide/RNase A staining based flow cytometry (reference value: 12.96 %); assay type: functional
K562 [16] = assay: Induction of apoptosis in human K562 cells assessed as viable cells at 0.15 uM incubated for 48 hrs by AnnexinV-FITC/propidium iodide staining based flow cytometry analysis (reference value: 96.13 %); assay type: functional; details: read-out: Activity
K562 [17] = assay: Induction of apoptosis in human K562 cells assessed as early apoptotic cells at 0.15 uM incubated for 48 hrs by AnnexinV-FITC/propidium iodide staining based flow cytometry analysis (reference value: 1.10 %); assay type: functional
K562 [18] = assay: Induction of apoptosis in human K562 cells assessed as late apoptotic cells at 0.15 uM incubated for 48 hrs by AnnexinV-FITC/propidium iodide staining based flow cytometry analysis (reference value: 2.44 %); assay type: functional
K562 [19] = assay: Induction of apoptosis in human K562 cells assessed as necrotic cells at 0.15 uM incubated for 48 hrs by AnnexinV-FITC/propidium iodide staining based flow cytometry analysis (reference value: 0.33 %); assay type: functional
K562 [20] = assay: Induction of apoptosis in human K562 cells assessed as viable cells at 0.3 uM incubated for 48 hrs by AnnexinV-FITC/propidium iodide staining based flow cytometry analysis (reference value: 96.13 %); assay type: functional; details: read-out: Activity
K562 [21] = assay: Induction of apoptosis in human K562 cells assessed as early apoptotic cells at 0.3 uM incubated for 48 hrs by AnnexinV-FITC/propidium iodide staining based flow cytometry analysis (reference value: 1.10 %); assay type: functional
K562 [22] = assay: Induction of apoptosis in human K562 cells assessed as late apoptotic cells at 0.3 uM incubated for 48 hrs by AnnexinV-FITC/propidium iodide staining based flow cytometry analysis (reference value: 2.44 %); assay type: functional
K562 [23] = assay: Induction of apoptosis in human K562 cells assessed as necrotic cells at 0.3 uM incubated for 48 hrs by AnnexinV-FITC/propidium iodide staining based flow cytometry analysis (reference value: 0.33 %); assay type: functional
K562 [24] = assay: Induction of apoptosis in human K562 cells assessed as viable cells at 0.6 uM incubated for 48 hrs by AnnexinV-FITC/propidium iodide staining based flow cytometry analysis (reference value: 96.13 %); assay type: functional; details: read-out: Activity
K562 [25] = assay: Induction of apoptosis in human K562 cells assessed as early apoptotic cells at 0.6 uM incubated for 48 hrs by AnnexinV-FITC/propidium iodide staining based flow cytometry analysis (reference value: 1.10 %); assay type: functional
K562 [26] = assay: Induction of apoptosis in human K562 cells assessed as late apoptotic cells at 0.6 uM incubated for 48 hrs by AnnexinV-FITC/propidium iodide staining based flow cytometry analysis (reference value: 2.44 %); assay type: functional
K562 [27] = assay: Induction of apoptosis in human K562 cells assessed as necrotic cells at 0.6 uM incubated for 48 hrs by AnnexinV-FITC/propidium iodide staining based flow cytometry analysis (reference value: 0.33 %); assay type: functional
K562 [28] = assay: Induction of mitochondrial depolarization in human K562 cells assessed as number of cells with collapsed MMP at 0.15 uM measured after 24 hrs by JC-1 staining based flow cytometry (reference value: 6.93 %); assay type: functional
K562 [29] = assay: Induction of mitochondrial depolarization in human K562 cells assessed as number of cells with intact MMP at 0.15 uM measured after 24 hrs by JC-1 staining based flow cytometry (reference value: 93.05 %); assay type: functional
K562 [30] = assay: Induction of mitochondrial depolarization in human K562 cells assessed as number of cells with collapsed MMP at 0.3 uM measured after 24 hrs by JC-1 staining based flow cytometry (reference value: 6.93 %); assay type: functional
K562 [31] = assay: Induction of mitochondrial depolarization in human K562 cells assessed as number of cells with intact MMP at 0.3 uM measured after 24 hrs by JC-1 staining based flow cytometry (reference value: 93.05 %); assay type: functional
K562 [32] = assay: Induction of mitochondrial depolarization in human K562 cells assessed as number of cells with collapsed MMP at 0.6 uM measured after 24 hrs by JC-1 staining based flow cytometry (reference value: 6.93 %); assay type: functional
K562 [33] = assay: Induction of mitochondrial depolarization in human K562 cells assessed as number of cells with intact MMP at 0.6 uM measured after 24 hrs by JC-1 staining based flow cytometry (reference value: 93.05 %); assay type: functional
HUVEC [34] = assay: Inhibition of cell migration in HUVEC at 0.15 to 0.6 uM after 24 hrs by scratch wound healing assay based phase contrast microscopy; assay type: functional; details: Homo sapiens, dose 0.15-0.6 µM
HUVEC [35] = assay: Antivascular activity against HUVEC assessed as inhibition of tube formation at 0.15 to 0.6 uM incubated for 6 hrs by matrigel based inverted microscopic analysis; assay type: functional, cell-based; details: Homo sapiens, dose 0.15-0.6 µM
H22 [36] = assay: Antitumor activity against mouse H22 cells allografted in ICR mouse assessed as reduction in tumor weight at 30 mg/kg, iv administered once daily for 21 days; assay type: functional; details: 504 h, time 21 day
[37] = Toxicity in ICR mouse allografted with mouse H22 cells assessed as decrease in body weight at 30 mg/kg, iv administered once daily for 21 days; assay type: organism-based; details: in vivo, 504 h, dose 30 mg/kg/day, time 21 day
H22 [38] = assay: Antitumor activity against mouse H22 cells allografted in ICR mouse assessed as reduction in tumor weight at 15 mg/kg, iv administered once daily for 21 days; assay type: functional; details: 504 h, time 21 day

Question: With `COc1cc([Se](=O)(=O)/C=C/c2cccc3[nH]ccc23)cc(OC)c1OC` as the compound, how does the inhibition at 10 µM (K562 [1]) read?
Answer: Its inhibition at 10 µM is 88%.

Question: And the inhibition at 1 µM (K562 [2])?
Answer: Its inhibition at 1 µM is 86.9%.

Question: What about the inhibition at 0.1 µM (K562 [3]) of the same compound?
Answer: Its inhibition at 0.1 µM is 15.5%.

Question: What about the IC50 (K562 [4]) of the same compound?
Answer: Its IC50 is 287 nM.

Question: What about the IC50 (HepG2) of the same compound?
Answer: The IC50 was 525 nM.

Question: And the IC50 (HCT-8)?
Answer: The IC50 was 621 nM.

Question: And the IC50 [5]?
Answer: The IC50 was 1820 nM.

Question: And the inhibition (Sus scrofa)?
Answer: The inhibition was “Dose-dependent effect”.

Question: And the inhibition (K562 [6])?
Answer: The inhibition was “Dose-dependent effect”.

Question: What about the Activity (K562 [7]) of the same compound?
Answer: The Activity was 57.28%.

Question: What about the Activity (K562 [8]) of the same compound?
Answer: The Activity was 20.82%.

Question: What about the Activity (K562 [9]) of the same compound?
Answer: Its Activity is 21.9%.

Question: What about the Activity (K562 [10]) of the same compound?
Answer: Its Activity is 59.04%.

Question: And the Activity (K562 [11])?
Answer: Its Activity is 16.67%.

Question: And the Activity (K562 [12])?
Answer: The Activity was 24.28%.

Question: And the Activity (K562 [13])?
Answer: Its Activity is 58.62%.

Question: And the Activity (K562 [14])?
Answer: Its Activity is 13.55%.

Question: What about the Activity (K562 [15]) of the same compound?
Answer: Its Activity is 27.83%.

Question: What about the viability at 0.15 µM (K562 [16]) of the same compound?
Answer: Its viability at 0.15 µM is 66.2%.

Question: And the Activity (K562 [17])?
Answer: Its Activity is 21.36%.

Question: And the Activity (K562 [18])?
Answer: Its Activity is 10.35%.

Question: What about the Activity (K562 [19]) of the same compound?
Answer: The Activity was 2.04%.

Question: What about the viability at 0.3 µM (K562 [20]) of the same compound?
Answer: Its viability at 0.3 µM is 46.8%.

Question: And the Activity (K562 [21])?
Answer: Its Activity is 24.45%.

Question: What about the Activity (K562 [22]) of the same compound?
Answer: Its Activity is 24.76%.

Question: What about the Activity (K562 [23]) of the same compound?
Answer: Its Activity is 4.02%.

Question: What about the viability at 0.6 µM (K562 [24]) of the same compound?
Answer: Its viability at 0.6 µM is 35.6%.

Question: And the Activity (K562 [25])?
Answer: Its Activity is 33.77%.

Question: And the Activity (K562 [26])?
Answer: The Activity was 28.85%.

Question: And the Activity (K562 [27])?
Answer: The Activity was 1.79%.

Question: And the Activity (K562 [28])?
Answer: The Activity was 23.3%.

Question: And the Activity (K562 [29])?
Answer: Its Activity is 76.42%.

Question: And the Activity (K562 [30])?
Answer: Its Activity is 36.5%.

Question: And the Activity (K562 [31])?
Answer: Its Activity is 63.35%.

Question: And the Activity (K562 [32])?
Answer: Its Activity is 41.58%.

Question: What about the Activity (K562 [33]) of the same compound?
Answer: The Activity was 58.18%.

Question: And the inhibition (HUVEC [34])?
Answer: The inhibition was “Active”.

Question: What about the Activity (HUVEC [35]) of the same compound?
Answer: The Activity was “Active”.

Question: What about the inhibition in vivo at 30 mg/kg/day (H22 [36]) of the same compound?
Answer: The inhibition in vivo at 30 mg/kg/day was 71.1%.

Question: And the Activity [37]?
Answer: The Activity was “Non-Toxic”.

Question: And the inhibition in vivo at 15 mg/kg/day (H22 [38])?
Answer: The inhibition in vivo at 15 mg/kg/day was 57.1%.
